In brackets after ≈: the same amount, converted by molar mass.
Legend:
[1] = tested on: MoraXella MI; experiment: MIC, agar incorporation method (NCCLS agar dilution method); format: cell-based; conditions: 18-24 hours, 35±2° C.
Description: (§1) Drug dilutions and the agar plates are prepared by NCCLS method. Inoculum is prepared by direct colony suspensions in normal saline and adjusted to 0.5 McFarland turbidity and subsequently diluted as per NCCLS guidelines in order to obtain 10^4 CFU/spot. CFU/ml of a few randomly selected cultures is performed. The cultures are replicated on the agar plates using replicator (Denley's multipoint). The plates are incubated at 35±2° C. and in 5% CO2 atmosphere (for respiratory and Haemophilus strains) for 18-24 hours at 35±2° C. Minimum inhibitory concentrations (MIC) are determined after 18-24 hours. Q. C. strains are also included in each run of the study. The cation content of Mueller Hinton agar is checked by performing disk […] of 10 μg gentamicin disk against Pseudomonas aeroginosa ATCC 27853. The zone of inhibition should fall between 16-21 mm. The concentration of drug at which there is complete disappearance of growth spot or formation of less than 10 colonies per spot is considered as MIC.

[2] = tested on: S. pneum AB 14 (erm); experiment: microbe, parasite or virus in culture; format: cell-based, streptococcus pneumoniae; conditions: for Minimum Inhibitory Concentrations, S. pneum AB 14 (erm): agar dilution, 18-24 hours, 35±2° C., 5% CO2, erm: ribosomal modification (mutation) erm genes
Description: as §1

[3] = tested on: S. pneum 1275 (erm); experiment: microbe, parasite or virus in culture; format: cell-based, streptococcus pneumoniae; conditions: for Minimum Inhibitory Concentrations, S. pneum 1275 (erm): agar dilution, 18-24 hours, 35±2° C., 5% CO2, erm: ribosomal modification (mutation) erm genes
Description: as §1

[4] = tested on: S. pneum ATCC 49619; experiment: MIC, agar incorporation method (NCCLS agar dilution method); format: cell-based, streptococcus pneumoniae; conditions: 35±2° C.; for Minimum Inhibitory Concentrations, S. pneum ATCC 49619: 18-24 hours, 5% CO2
Description: as §1

[5] = tested on: S. pneum 1294 (mef); experiment: microbe, parasite or virus in culture; format: cell-based, streptococcus pneumoniae; conditions: agar dilution, 18-24 hours, 35±2° C., 5% CO2; mef: efflux pump mef genes
Description: as §1

[6] = tested on: S. pneum AB 29 (erm); experiment: microbe, parasite or virus in culture; format: cell-based, streptococcus pneumoniae; conditions: agar dilution, 18-24 hours, 35±2° C., 5% CO2; erm: ribosomal modification (mutation) erm genes
Description: as §1

[7] = tested on: S. pneum AB 30 (erm); experiment: microbe, parasite or virus in culture; format: cell-based, streptococcus pneumoniae; conditions: agar dilution, 18-24 hours, 35±2° C., 5% CO2; erm: ribosomal modification (mutation) erm genes
Description: as §1

[8] = tested on: S. pneum 1256 (erm); experiment: microbe, parasite or virus in culture; format: cell-based, streptococcus pneumoniae; conditions: agar dilution, 18-24 hours, 35±2° C., 5% CO2; erm: ribosomal modification (mutation) erm genes
Description: as §1

[9] = tested on: S. pneum AB 34 (mef); experiment: MIC, agar incorporation method (NCCLS agar dilution method); format: cell-based, streptococcus pneumoniae; conditions: 18-24 hours, 35±2° C., 5% CO2, mef: efflux pump mef genes
Description: as §1

[10] = tested on: S. pneum CS 1687 (mef); experiment: as above; format: cell-based, streptococcus pneumoniae; conditions: 18-24 hours, 35±2° C., 5% CO2, mef: efflux pump mef genes
Description: as §1

[11] = tested on: S. pneum ATCC 6303; experiment: as above; format: cell-based, streptococcus pneumoniae; conditions: 18-24 hours, 35±2° C., 5% CO2
Description: as §1

[12] = tested on: S. pneum 1251 (mef); experiment: as above; format: cell-based, streptococcus pneumoniae; conditions: 18-24 hours, 35±2° C., 5% CO2, mef: efflux pump mef genes
Description: as §1

[13] = tested on: H. inflenza ATCC 49247; experiment: as above; format: cell-based, Haemophilus influenzae; conditions: agar dilution, 18-24 hours, 35±2° C., 5% CO2
Description: Minimum inhibitory concentrations (μg/ml) were obtained for representative compounds of the invention, which are given in Table 2.
as §1

CCC[C@@H]1C[C@@H](C(=O)N[C@@H]([C@H]2O[C@H](SC)[C@H](O)[C@@H](O)[C@H]2O)[C@H](C)Cl)N(C)C1 [Cl, Clindamycin, reference compound]
MIC ([1]; Moraxella, read-out: Minimum Inhibitory Concentrations, MoraXella MI): 2 µg/mL (≈ 4.71 µM) | MIC ([2]; Streptococcus pneumoniae, read-out: Minimum Inhibitory Concentrations, S. pneum AB 14 (erm)): > 16 µg/mL | MIC ([3]; Streptococcus pneumoniae, read-out: Minimum Inhibitory Concentrations, S. pneum 1275 (erm)): > 16 µg/mL | MIC ([4]; Streptococcus pneumoniae, ATCC49619, 18-24 hours, 5% CO2, read-out: Minimum Inhibitory Concentrations, S. pneum ATCC 49619): 0.015 µg/mL (≈ 0.0353 µM)

CCC1OC(=O)C(C)C(OC(=O)Cc2ccc(F)cc2)C(C)C(OC2OC(C)CC(N(C)Cc3ccc([N+](=O)[O-])cc3)C2O)C(C)(OC)CC(C)C(=O)C(C)C(O)C1(C)O (stereo not shown) [Compound No. 24, 3-O-(4-Fluorophenyl)acetyl-5-O-(3′-N-desmethyl-3′-N-(4-nitro)benzyl)desosaminyl-6-O-methyl erythronolide A]
Minimum Inhibitory Concentrations, MoraXella MI [1]: 2 µg/mL | Minimum Inhibitory Concentrations, S. pneum 1294 (mef) [5]: 2 µg/mL | Minimum Inhibitory Concentrations, S. pneum AB 14 (erm) [2]: 8 µg/mL | Minimum Inhibitory Concentrations, S. pneum AB 29 (erm) [6]: >16 µg/mL | Minimum Inhibitory Concentrations, S. pneum AB 30 (erm) [7]: >16 µg/mL | Minimum Inhibitory Concentrations, S. pneum 1256 (erm) [8]: >16 µg/mL | Minimum Inhibitory Concentrations, S. pneum 1275 (erm) [3]: >16 µg/mL | Minimum Inhibitory Concentrations, S. pneum AB 34 (mef) [9]: >16 µg/mL | Minimum Inhibitory Concentrations, S. pneum CS 1687 (mef) [10]: 0.5 µg/mL | Minimum Inhibitory Concentrations, S. pneum ATCC 6303 [11]: 0.5 µg/mL | Minimum Inhibitory Concentrations, S. pneum 1251 (mef) [12]: 1 µg/mL | Minimum Inhibitory Concentrations, S. pneum ATCC 49619 [4]: 0.5 µg/mL

3-O-(3-Fluorophenyl)acetyl-5-O-(3′-N-desmethyl-3′-N-allyl)desosaminyl-6-O-methyl erythronolide A [Compound No. 19]
Minimum Inhibitory Concentrations, MoraXella MI [1]: 16 µg/mL | Minimum Inhibitory Concentrations, S. pneum 1294 (mef) [5]: 4 µg/mL | Minimum Inhibitory Concentrations, S. pneum AB 14 (erm) [2]: >16 µg/mL | Minimum Inhibitory Concentrations, S. pneum AB 29 (erm) [6]: 2 µg/mL | Minimum Inhibitory Concentrations, S. pneum AB 30 (erm) [7]: >16 µg/mL | Minimum Inhibitory Concentrations, S. pneum 1256 (erm) [8]: >16 µg/mL | Minimum Inhibitory Concentrations, S. pneum 1275 (erm) [3]: >16 µg/mL | Minimum Inhibitory Concentrations, S. pneum AB 34 (mef) [9]: 16 µg/mL | Minimum Inhibitory Concentrations, S. pneum CS 1687 (mef) [10]: 2 µg/mL | Minimum Inhibitory Concentrations, S. pneum ATCC 6303 [11]: 2 µg/mL | Minimum Inhibitory Concentrations, S. pneum 1251 (mef) [12]: 2 µg/mL | Minimum Inhibitory Concentrations, S. pneum ATCC 49619 [4]: 2 µg/mL

3-O-(4-Fluorophenyl)acetyl-5-O-(3′-N-desmethyl-3′-N-allyl)desosaminyl-6-O-methyl erythronolide A [Compound No. 20]
Minimum Inhibitory Concentrations, H. inflenza ATCC 49247 [13]: >16 µg/mL | Minimum Inhibitory Concentrations, MoraXella MI [1]: 16 µg/mL | Minimum Inhibitory Concentrations, S. pneum 1294 (mef) [5]: 1 µg/mL | Minimum Inhibitory Concentrations, S. pneum AB 14 (erm) [2]: >16 µg/mL | Minimum Inhibitory Concentrations, S. pneum AB 30 (erm) [7]: >16 µg/mL | Minimum Inhibitory Concentrations, S. pneum 1256 (erm) [8]: 16 µg/mL | Minimum Inhibitory Concentrations, S. pneum 1275 (erm) [3]: >16 µg/mL | Minimum Inhibitory Concentrations, S. pneum AB 34 (mef) [9]: >16 µg/mL | Minimum Inhibitory Concentrations, S. pneum CS 1687 (mef) [10]: 1 µg/mL | Minimum Inhibitory Concentrations, S. pneum ATCC 6303 [11]: 0.5 µg/mL | Minimum Inhibitory Concentrations, S. pneum 1251 (mef) [12]: 1 µg/mL | Minimum Inhibitory Concentrations, S. pneum ATCC 49619 [4]: 0.25 µg/mL

Reference: patent US20070270484A1, “3'-N-Substituted-3-O-Substituted Erythronolide a Derivatives” (priority 2003, published 2007)
